Source: patent US7442383B2, “Use of xenon for the control of neurological deficits associated with cardiopulmonary bypass” (Protexeon Limited, priority 2002, dated 2008)

Legend:
[1] = tested on: mouse neuronal/glial co-culture; assay: LDH release from neuronal/glial co-culture, temperature variation study; type: cell-based; conditions: xenon concentration (% atm)
Protocol: The effects of xenon as a neuroprotectant were investigated at normal body temperature (37° C.) and at a lower temperature (33° C.), for example, as may pertain during CPB. The study was based on measuring LDH release from a mouse neuronal/glial co-culture in accordance with the method described in WO 01/08692 (in the name of Imperial College of Science, Technology and Medicine).

rat CPB model [2] = assay: Morris water maze neurocognitive testing after CPB; type: in vivo; conditions: 10 postoperative days; speeds 4.7 to 6.2 inch/sec
Source text: The methodology of the CPB model used in the current study has been previously reported (Anesthesiology 2001, 95:1485-91). Briefly, anesthesia was induced in male Sprague-Dawley rats (12-14 weeks, 350-380 gm; Harlan, Indianapolis, Ind.) with 5% isoflurane in oxygen-enriched air in a plastic box. Following orotracheal intubation with a 14-gauge cannula, the lungs were mechanically ventilated (40% O2/balance N2) to maintain a PaCO2 of 36-42 mmHg. During surgical preparation, anesthesia was maintained with 2.0-2.5% isoflurane and the rectal and pericranial temperatures were monitored and servo-controlled at 37.5±0.1° C. (YSI 400 series thermistor and 73ATA Indicating controller; YSI, Yellow Springs, Ohio) with a heating blanket and convective forced-air heating system. […]
The CPB circuit (FIG. 2) consisted of a venous reservoir, a peristaltic pump and a membrane oxygenator, all of which were connected via 1.6 mm internal diameter silicone tubing (Tygon®; Cole-Parmer Instrument Co., Vernon Hills, Ill.). […] The venous oxygen saturation from the venous return line was measured continuously using an Oximetrix® Monitor and Opticath® Catheter (Abbot Laboratories, North Chicago, Ill.). Arterial blood gases were performed using a IL 1306 blood gas analyzer (Instrument Laboratories, Inc., Lexington, Mass.) with hemoglobin determined using an OSM3 Hemoximeter® (Radiometer Inc., Copenhagen, Denmark). […]

rat CPB model [3] = assay: Standardized functional neurologic (neuromotor) testing after CPB; type: in vivo; conditions: for neurologic outcome, difference among groups: 12th postoperative day
Source text: The methodology of the CPB model used in the current study has been previously reported (Anesthesiology 2001, 95:1485-91). Briefly, anesthesia was induced in male Sprague-Dawley rats (12-14 weeks, 350-380 gm; Harlan, Indianapolis, Ind.) with 5% isoflurane in oxygen-enriched air in a plastic box. Following orotracheal intubation with a 14-gauge cannula, the lungs were mechanically ventilated (40% O2/balance N2) to maintain a PaCO2 of 36-42 mmHg. During surgical preparation, anesthesia was maintained with 2.0-2.5% isoflurane and the rectal and pericranial temperatures were monitored and servo-controlled at 37.5±0.1° C. (YSI 400 series thermistor and 73ATA Indicating controller; YSI, Yellow Springs, Ohio) with a heating blanket and convective forced-air heating system. The superficial caudal epigastric artery, a branch of a femoral artery, was cannulated with PE-10 tubing for monitoring mean arterial pressure (MAP). During cardiopulmonary bypass (CPB) rats were anesthetized with fentanyl (30 μg/kg, i.v.), midazolam (0.4 mg/kg, i.v.) and atracurium (0.5 mg/kg, i.v.) as a bolus of injection and followed by a continuous infusion of the mixture of three with a syringe pump (2.5 μg/kg/min for fentanyl, 0.03 mg/kg/min for midazolam and 0.08 mg/kg/min for atracurium). Pilot studies had been confirmed that with this anesthetic regimen, the animals had enough depth of anesthesia during CPB.
The CPB circuit (FIG. 2) consisted of a venous reservoir, a peristaltic pump and a membrane oxygenator, all of which were connected via 1.6 mm internal diameter silicone tubing (Tygon®; Cole-Parmer Instrument Co., Vernon Hills, Ill.). The CPB circuit was primed with approximately 40 ml of whole blood obtained prior to the start of the experiment from two heparinized (100IU/rat, i.v.) donor rats (275-320 gm) which were exsanguinated under isoflurane anesthesia. The drained blood traversed a warmed venous reservoir (jacketed with circulating water from a heat pump) to a peristaltic pump (Masterflex®; Cole-Parmer Instrument Co., Vernon Hills, Ill.) to a membrane oxygenator (a modified Cobe Micro® neonatal oxygenator with a surface area of 0.33 m^2; Cobe Cardiovascular, Inc., Arvada, Colo.). A closed-circuit gas delivery system fed the appropriate gas into the oxygenator after which blood was inflsed back into the rat. An in-line flow probe (2N806 flow probe and T208 volume flowmeter; Transonics Systems, Inc., Ithaca, N.Y.) was used to continuously measure CPB flow. Arterial line inflow temperature was maintained at 37.5° C. using a circulating water bath system. The venous oxygen saturation from the venous return line was measured continuously using an Oximetrix® Monitor and Opticath® Catheter (Abbot Laboratories, North Chicago, Ill.). Arterial blood gases were performed using a IL 1306 blood gas analyzer (Instrument Laboratories, Inc., Lexington, Mass.) with hemoglobin determined using an OSM3 Hemoximeter® (Radiometer Inc., Copenhagen, Denmark).
After complete of all surgical procedures as described as above, rats were randomly divided into one of four groups. […] CPB group: rats (n=10) were subjected to 60 min of non-pulsatile CPB with a membrane oxygenator receiving a mixture of 30% O2 and 65% N2. CPB+MK801 group: rats (n=10) received MK801 (0.15 mg/kg, i.v.) 15 min prior to 60 min of CPB with similar concentrations of gases as in group 2. The dose of MK801 was chosen from pilot studies, in which its side effect can be kept at minmal level. CPB+Xenon group: rats (n=10) underwent 60 min of CPB with a membrane oxygenator receiving a mixture of 30% O2 and 60% xenon. […]

rat CPB model [4] = assay: General behavioural changes after emergence from anesthesia; type: in vivo; conditions: MK801 0.15 mg/kg i.v.
Protocol: After complete of all surgical procedures as described as above, rats were randomly divided into one of four groups. […] CPB group: rats (n=10) were subjected to 60 min of non-pulsatile CPB with a membrane oxygenator receiving a mixture of 30% O2 and 65% N2. CPB+MK801 group: rats (n=10) received MK801 (0.15 mg/kg, i.v.) 15 min prior to 60 min of CPB with similar concentrations of gases as in group 2. The dose of MK801 was chosen from pilot studies, in which its side effect can be kept at minmal level. CPB+Xenon group: rats (n=10) underwent 60 min of CPB with a membrane oxygenator receiving a mixture of 30% O2 and 60% xenon.
All animals were able to drink and to eat after emergence.

[5] = 1st postoperative day, CPB group 5.2±1.5, sham 7.6±0.8
[6] = 3rd postoperative day, CPB group 5.8±1.8, sham 8.3±0.7

SMILES	EC50 for reduction of LDH release ([1]; 33° C.)	EC50 for reduction of LDH release ([1]; 37° C.)	swimming speeds, difference among groups (rat CPB model [2])	neurologic outcome (functional neurologic score, zero to nine scale, best score=9) (rat CPB model [3]; [5])	neurologic outcome (functional neurologic score, zero to nine scale, best score=9) (rat CPB model [3]; [6])	neurologic outcome, difference among groups (rat CPB model [3])	duration of behavioural disturbances (rat CPB model [4]) [h]	general behavioural changes (rat CPB model [4])
[Xe] [xenon]	11.5+/−2.0%	35.9+/−2.2%	no significant differences	8.3±0.5	8.9±0.2	no difference		
C[C@]12N[C@H](Cc3ccccc31)c1ccccc12 [MK801]			no significant differences	6.2±1.4	7.4±1.8	no difference	1 to 2	hyperactivity, head weaving and related disturbances of motor coordination
